A melting point compilation (Tetko et al.; mined from patent text by program, amines drawn as free bases though some values may be those of a salt)

Row | Structure (SMILES) | melting point
1 | COc1ccc(N2CCOCC2)c2sc(C(=O)NCC(=O)c3ccc4c(c3)OCCO4)nc12 | 175 °C
2 | CCc1cc2c(cc1N)N1CCCN=C1S2 | 210 °C
3 | CC12CC(=O)C3C(CCC4CC(O)CCC43C)C1CCC2C(=O)COc1ccc([N+](=O)[O-])cc1 (stereo not given) | 186 to 187 °C
4 | CC(N)c1ccc2c(c1)N(C(=O)OC(C)(C)C)CCC2 (stereo not given) | 61 to 64 °C
5 | O=C(Nc1c(F)cc(F)cc1F)N(Cc1cc2ccccc2c2ccccc12)C1CCCCC1 | 122 to 124 °C
6 | c1coc(-c2ccc(-c3ccco3)cc2)c1 | 149 to 150 °C
7 | N#CC=C(N)c1ccsc1 | 67 to 69.5 °C
8 | CC(=O)CC(=O)Nc1ccc(Nc2ccccc2)cc1 | 89.5 °C
9 | CC(C)Oc1ccccc1-c1cc(=O)c2cc(C#N)ccc2o1 | 172 to 175 °C
10 | COc1ccc2c(c1)CCC1C2CCC2(C)C(NCCCCCCCCN)CCC12 (stereo not given) | 47.5 to 49 °C
11 | COc1cc2nc(N)nc(-c3ccc(O)cc3Cl)c2cc1OC | 245 to 247 °C
12 | COC(=O)C1=C(C)N(Cc2ccccc2[N+](=O)[O-])C(C)=C(C(=O)OC)C1c1cccc2nonc12 | 192 °C
13 | COc1cc(O)c(C(=O)C=Cc2ccco2)c(OC)c1 | 98.4 °C
14 | C=CCC(C#N)(C#N)Cc1ccc([N+](=O)[O-])cc1 | 94.2 °C
15 | CSC(=NC(=O)Cc1ccccc1)N(C)N=Cc1ccccc1 | 147 to 148 °C
16 | COC(=O)/C=C/n1cnc2ccc(O)cc2c1=O | 252 to 256 °C
17 | CC(C)(C)c1cc(Br)c(O)c(C#N)c1 | 69 to 71 °C
18 | CCOC(=O)C1(c2ccc3c(c2)OCC(Cc2ccc(-c4ccccc4)cc2)C3=O)CCCC1 (stereo not given) | 50 to 56 °C
19 | Cn1nnc(-c2ccc(OCC(O)CNCCOc3ccc(O)c(C(N)=O)c3)cc2)n1 (stereo not given) | 174 to 175 °C
20 | COC(=O)C(=Cc1cccc(-c2ccc(Cl)cc2)c1)NC(C)=O | 168 °C
21 | CCc1cc(=O)c2c([nH]1)CCOC2 | 238 to 240 °C
22 | O=C(O)CCNc1cccc(Br)n1 | 108 to 109 °C
23 | N#Cc1ccc(-c2ccc(OCCCCC(=O)NO)cc2)cc1 | 142 to 143 °C
24 | COC(=O)c1ccc(/C=C/c2nc(-c3ccco3)oc2C)cc1 | 142 to 143 °C

Row | Structure (SMILES) | melting point
25 | Cc1c(O)cccc1NC(=O)CC12CC3CC(CC(C3)C1)C2 | 211 °C
26 | O=C(NCCNc1c(Cl)cncc1Cl)C1CCN(c2c(Cl)cncc2Cl)CC1 | 157 to 159 °C
27 | CCOC(=O)N1CCc2c(sc3nc(-c4ccc(Cl)cc4)cn23)C1 | 156 to 159 °C
28 | COc1nc2cc(Cl)c(F)c(CS(N)(=O)=O)c2nc1OC | 227 to 228 °C
29 | CCCCc1ccc2nc(Cl)c(S(N)(=O)=O)n2n1 | 166 °C
30 | O=CNCC1Cc2ccccc2Cc2ccccc21 (stereo not given) | 109 to 111 °C
31 | Cc1ccc2nc(-c3cc(C(F)F)nn3-c3ccc(S(C)(=O)=O)cc3)sc2c1 | 183 to 184 °C
32 | CCC(C1=C(C)C(=O)C(C)=C(C)C1=O)c1ccc(C(C)C)cc1 (stereo not given) | 61 to 63 °C
33 | O=C(O)COc1ccc(SCc2cccc(OCc3ccc(Cl)c(C(F)(F)F)c3)c2)c2c1CCC2 | 121 to 122 °C
34 | Cc1c(Br)cc(S(C)(=O)=O)c(C)c1Cl | 124 to 126 °C
35 | CC1(C)OCc2cc(Cl)cc(C(O)c3cn(C(c4ccccc4)(c4ccccc4)c4ccccc4)cn3)c2O1 (stereo not given) | 120 °C
36 | O=C(O)c1c[nH]c(=S)n1C1CCc2c(F)cc(F)cc2C1 (stereo not given) | 250 to 252 °C
37 | CC(=O)NC[C@H]1CC[C@H](C(=O)c2cc3c4c(c2)CCN4C(=O)CC3)CC1 | 178 to 180 °C
38 | NC(=O)c1nc(-c2cccc(O)c2)nc2c1[nH]c(=O)n2C1CCOCC1 | 361 to 363 °C
39 | CCCCOP(=O)(CCCCC1(C(=O)NCCC)c2ccccc2-c2ncccc21)OCCCC (stereo not given) | 93.5 to 96 °C
40 | CCOCc1nc2c(N)nc3cc(-c4cccc(C(N)=O)c4)cnc3c2n1CC(C)(C)O | > 250 °C
41 | Cc1ccc(NC(=O)c2ccc(O)c([N+](=O)[O-])c2)cc1C | 209 to 212 °C
42 | c1nc(Nc2ccc3[nH]ccc3c2)c2sc(-c3ccc(CN4CCOCC4)cc3)cc2n1 | 141 to 152 °C
43 | OC1CN(CCCOCCc2ccc3sccc3c2)C1 | 60 to 62 °C
44 | CC1(C2=CCC3C4CCC5CC(O)CCC5(C)C4C(O)CC23C)OCCO1 (stereo not given) | 214 to 218 °C
45 | CC(Nc1ccc(F)c(F)c1F)C(=O)O (stereo not given) | 114 to 119 °C
46 | CCC(C)n1cc(Cl)nc(N2CCc3cc(Br)cc(Cl)c32)c1=O (stereo not given) | 150 °C
47 | CC(C)(C)c1ccc2c(c1)CCC1=C2CCC(=O)N1 | 265 to 268 °C
48 | O=C1NCCc2ccc(OCCCCN3CCN(c4cccc5ccc(F)cc45)CC3)nc2N1 | 234 °C

Row | Structure (SMILES) | melting point
49 | Nc1nc(NCC(c2ccccc2)c2ccc(F)cc2)c2ncn(C3OC(CO)C(O)C3O)c2n1 (stereo not given) | 127 to 130 °C
50 | CC(=O)Nc1ccc2c(c1)C(C)(C)CCC2(C)C | 116 to 118 °C
51 | O=c1cc(-c2ccccc2)oc2cc(OCC3CO3)ccc12 (stereo not given) | 123 to 130 °C
52 | CCCCN(CCCC)c1ccc(C=Cc2cc(C)c(C=CC3=C(C#N)C(=C(C#N)C#N)OC3(C)C(F)(F)F)cc2C)c(OC)c1 (stereo not given) | 205 to 207 °C
53 | N#Cc1ccc(OCCNC(=O)C2Cc3ccccc3N2S(=O)(=O)c2ccc(-c3cccc(C(F)(F)F)c3)cc2)cc1 (stereo not given) | 70 to 80 °C
54 | CS(=O)(=O)NC(=O)c1cccc(N)c1 | 153 to 155 °C
55 | COCCOCOc1ccc(C(=O)c2nc3ccc(OCOCCOC)cc3s2)cc1 | 46 °C
56 | C#CCC(C1=Nc2cnccc2C(=O)C1Nc1ccccc1)N(CCCNC(=O)OCc1ccccc1)C(=O)c1cccc(Cl)c1F (stereo not given) | 100 to 102 °C
57 | O=C(/C=C/c1ccccc1)OCCOC(=O)NC1(C(=O)O)CC1 | 169 to 172 °C
58 | COc1ccc(Cn2cnc3c(-c4ccco4)nc(I)nc32)cc1 | 145 to 148 °C
59 | CCOC(=O)c1cccc(Cc2c(C(=O)OCC)n(Cc3cc4c(cc3CC)OCO4)c3ccc(OCOC)cc3c2=O)c1 | 89 to 96 °C
60 | CCOC(=O)c1c(N2CCN(C(=O)c3cccs3)CC2)c2cc(F)cnc2[nH]c1=O | 124 to 133 °C
61 | Cc1c(CNCC(C)(C)C)[nH]c2c(C)c(NC(=O)c3ccc(OC[C@@H]4CCCO4)cc3)ccc12 | 178 to 179 °C
62 | Cn1c(C(F)(F)F)cc(=O)n(C(c2ccc3c(c2)C(=O)NC3=O)c2nsc3ccccc23)c1=O (stereo not given) | 204 to 208 °C
63 | OC(c1cn(C(c2ccccc2)(c2ccccc2)c2ccccc2)cn1)c1cc(Cl)cc2c1OCOC2 (stereo not given) | 233 to 235 °C
64 | COc1cc2c(cc1C(=O)COc1ccc(C(=O)OCc3ccccc3)c(O)c1)C(C)(C)CCC2(C)C | 118 to 119 °C
65 | CCCC(=O)c1cnc2ccsc2c1Cl | 78 to 80 °C
66 | CCOC(=O)C1=Cc2cc(Cl)c(Oc3ccc(CC)cc3)cc2OC1C(F)(F)F (stereo not given) | 109 to 110 °C
67 | C[C@@H](CSC(=O)c1ccccc1)C(=O)N1C(=O)N(C)C[C@H]1C(=O)O | 162 °C
68 | C[Si](C)(C)OC(Cn1cncn1)(Cn1cncn1)c1ccc(F)cc1F | 69 to 71 °C
69 | C#CCOC(=O)Cc1c(C)nn(-c2cnccc2C)c1-c1ccccc1 | 106 °C
70 | C=CC[C@H]1CC(C(=O)OC)=C[C@H](N=[N+]=[N-])[C@H]1OS(C)(=O)=O | 70 to 72 °C
